According to US11040981B2, “Pyrrolotriazine compounds and methods of inhibiting TAM kinases” (Syros Pharmaceuticals, Inc., priority 2017, dated 2021):

Key:
[1] = biological target: T1, AXL (Homo sapiens, UniProt P30530); assay: TR-FRET kinase activity assay, AXL; assay type: biochemical; details: ATP at Km, 60 minutes
T1 sequence (P30530 26-894): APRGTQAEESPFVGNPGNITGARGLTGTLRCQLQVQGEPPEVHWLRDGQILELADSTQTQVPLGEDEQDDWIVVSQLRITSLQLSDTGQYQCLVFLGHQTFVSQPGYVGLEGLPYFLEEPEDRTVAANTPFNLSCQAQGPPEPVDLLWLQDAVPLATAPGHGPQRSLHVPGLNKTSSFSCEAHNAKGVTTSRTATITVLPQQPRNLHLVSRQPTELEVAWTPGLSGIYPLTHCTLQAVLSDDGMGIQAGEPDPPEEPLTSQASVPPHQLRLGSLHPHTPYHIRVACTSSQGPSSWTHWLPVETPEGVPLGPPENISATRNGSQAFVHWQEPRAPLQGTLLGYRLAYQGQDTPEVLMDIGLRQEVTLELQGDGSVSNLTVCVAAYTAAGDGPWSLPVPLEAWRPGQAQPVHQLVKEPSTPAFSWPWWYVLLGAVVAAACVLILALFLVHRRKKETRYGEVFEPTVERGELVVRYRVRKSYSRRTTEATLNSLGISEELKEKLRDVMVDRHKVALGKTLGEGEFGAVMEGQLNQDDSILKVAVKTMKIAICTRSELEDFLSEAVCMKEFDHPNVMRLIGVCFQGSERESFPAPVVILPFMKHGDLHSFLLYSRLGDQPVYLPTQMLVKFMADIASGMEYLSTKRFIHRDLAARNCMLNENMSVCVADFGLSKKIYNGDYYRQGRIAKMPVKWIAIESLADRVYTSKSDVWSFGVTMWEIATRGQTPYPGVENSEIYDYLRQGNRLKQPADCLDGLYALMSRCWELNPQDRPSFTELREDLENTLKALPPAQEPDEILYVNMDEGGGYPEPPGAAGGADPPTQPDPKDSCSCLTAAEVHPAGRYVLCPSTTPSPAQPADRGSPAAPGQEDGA
Summary of the method: (§1)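 Each kinase phosphorylated a fluorescent-labelled tyrosine peptide in 50 mM HEPES pH 7.5, 10 mM MgCl2, 1 mM EGTA, 0.01% Brij 35, 1 mM DTT at RT, with ATP at Km for that enzyme. After 60 min, EDTA quench and Eu-anti-phosphotyrosine antibody (30 min, dark); IC50 from TR-FRET decrease.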

[2] = biological target: T2, FLT3 (Homo sapiens, UniProt P36888); assay: TR-FRET kinase activity assay, FLT3; assay type: biochemical; details: ATP at Km, 60 minutes
T2 sequence (P36888 27-993): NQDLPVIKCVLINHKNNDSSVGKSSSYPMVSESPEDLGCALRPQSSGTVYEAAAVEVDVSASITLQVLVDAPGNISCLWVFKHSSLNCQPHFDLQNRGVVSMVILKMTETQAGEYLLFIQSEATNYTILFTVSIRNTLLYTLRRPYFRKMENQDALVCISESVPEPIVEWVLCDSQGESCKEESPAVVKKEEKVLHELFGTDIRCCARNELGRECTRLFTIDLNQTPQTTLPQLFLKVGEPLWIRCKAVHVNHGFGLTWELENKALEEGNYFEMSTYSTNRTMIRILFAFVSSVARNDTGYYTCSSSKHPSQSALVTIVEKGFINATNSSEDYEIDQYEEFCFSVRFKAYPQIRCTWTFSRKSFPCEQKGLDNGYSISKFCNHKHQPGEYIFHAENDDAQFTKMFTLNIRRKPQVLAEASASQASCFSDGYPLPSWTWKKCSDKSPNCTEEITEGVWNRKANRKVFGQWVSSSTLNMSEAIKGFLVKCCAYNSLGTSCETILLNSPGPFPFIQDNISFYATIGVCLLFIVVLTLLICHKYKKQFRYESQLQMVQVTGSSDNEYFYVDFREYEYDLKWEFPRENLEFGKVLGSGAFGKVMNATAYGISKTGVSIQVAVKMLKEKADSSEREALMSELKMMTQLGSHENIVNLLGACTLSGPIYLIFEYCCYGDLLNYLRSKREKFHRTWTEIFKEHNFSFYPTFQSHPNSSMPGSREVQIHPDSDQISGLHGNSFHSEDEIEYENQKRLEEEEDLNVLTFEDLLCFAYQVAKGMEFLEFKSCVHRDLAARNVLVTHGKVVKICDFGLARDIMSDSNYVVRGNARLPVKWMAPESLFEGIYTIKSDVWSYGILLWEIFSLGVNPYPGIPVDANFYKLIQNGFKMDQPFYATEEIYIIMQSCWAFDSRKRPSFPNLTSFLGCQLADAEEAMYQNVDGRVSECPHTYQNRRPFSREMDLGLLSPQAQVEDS
Summary of the method: as §1

| IC50 [1] [µM] | IC50 [2] [µM] | Structure (SMILES) |
| --- | --- | --- |
| ≤ 0.1 | 0.1 to 1 | COC[C@H](C)Nc1ncc2c(-c3ccc(C(=O)N4CCOCC4)cc3)cc([C@H]3CC[C@H](O)CC3)n2n1 [Compound 187, (4-(7-((trans)-4-hydroxycyclohexyl)-2-(((S)-1-methoxypropan-2-yl)amino)pyrrolo[2,1-f][1,2,4]triazin-5-yl)phenyl)(morpholino)methanone] |
| ≤ 0.1 | ≤ 0.1 | C[C@@H](COC(F)F)Nc1ncc2c(-c3ccc(CN4CCOCC4)cc3)cc([C@H]3CC[C@H](O)CC3)n2n1 [Compound 188] |
| ≤ 0.1 | ≤ 0.1 | CC(CC1CC1)Nc1ncc2c(-c3ccc(CN4CCOCC4)cc3)cc(C3CCC(O)CC3)n2n1 (stereo not drawn) [Compound 189] |
| ≤ 0.1 | ≤ 0.1 | Cc1cc(-c2cc(C3CCC(O)CC3)n3nc(NC(C)CC4CC4)ncc23)ccn1 (stereo not drawn) [Compound 190] |
| 1 to 10 | 1 to 10 | COCC(C)Nc1ncc2c(N3CCOCC3=O)cc(C3CCC(O)CC3)n2n1 (stereo not drawn) [Compound 192] |

Continued, compound first:

| Structure (SMILES) | IC50 [1] [µM] | IC50 [2] [µM] |
| --- | --- | --- |
| CCCCC[C@H](C)Nc1ncc2c(-c3ccc(S(=O)(=O)N4CCOCC4)cc3)cc([C@H]3CC[C@@H](O)CC3)n2n1 [Compound 103, (1R,4s)-4-(2-((S)-heptan-2-ylamino)-5-(4-(morpholinosulfonyl)phenyl)pyrrolo[2,1-f][1,2,4]triazin-7-yl)cyclohexanol] | 0.1 to 1 | 0.1 to 1 |
| COCC(C)Nc1ncc2c(-c3ccc(C4(N5CCN(C)CC5)CC4)cc3)cc(C3CCC(O)CC3)n2n1 (stereo not drawn) [Compound 185] | ≤ 0.1 | 0.1 to 1 |
| COC[C@H](C)Nc1ncc2c(-c3cn(C)cn3)cc([C@H]3CC[C@H](O)CC3)n2n1 [Compound 186] | 0.1 to 1 | 0.1 to 1 |
| COCC(C)Nc1ncc2c(C3CC4CCC(C3)N4C)cc(C3CCC(O)CC3)n2n1 (stereo not drawn) [Compound 191] | 0.1 to 1 | 1 to 10 |
